This note sets out measurements from US12059420B2 (BRISTOL-MYERS SQUIBB COMPANY, priority 2018, dated 2024).

SMILES strings stand for the structures. Structures can show the parent of a compound that is named as a salt.

The test concerns the target T1, human IDO1 (Homo sapiens, UniProt P14902).
T1 construct: expressed in transfected cells
Briefly: IDO inhibition assay in HEK293 cells stably expressing human IDO1 (kynurenine production, Ehrlich reagent, absorbance 490 nm). Format: cell-based. The settings on record: 20 hours incubation with compound, 500 nM reference standard = 100% inhibition, read-out: IDO1 HEK Human IC50. As to the method: HEK293 cells were transfected with a pCDNA-based mammalian expression vector harboring human IDO1 cDNA (NM 002164.2) by electroporation. They were cultured in medium (DMEM with 10% FBS) containing 1 mg/ml G418 for two weeks. Clones of HEK293 cells that stably expressed human IDO1 protein were selected and expanded for IDO inhibition assay.
The human IDO1/HEK293 cells were seeded at 10,000 cells per 50 μL per well with RPMI/phenol red free media contains 10% FBS in a 384-well black wall clear bottom tissue culture plate (Matrix Technologies LLC) 100 nL of certain concentration of compound was then added to each well using ECHO liquid handling systems. The cells were incubated for 20 hours in 37° C. incubator with 5% CO2.
The compound treatments were stopped by adding trichloroacetic acid (Sigma-Aldrich) to a final concentration at 0.2%. The cell plate was further incubated at 50° C. for 30 minute. The equal volume supernatant (20 μL) and 0.2% (w/v) Ehrlich reagent (4-dimethylaminobenzaldehyde, Sigma-Aldrich) in glacial acetic acid were mixed in a new clear bottom 384-well plate. This plate was then incubated at RT for 30 minute. The absorbance at 490 nm was measured on Envision plate reader.
Compound IC50 values were calculated using the counts of 500 nM of a reference standard treatment as one hundred percent inhibition, and counts of no compound but DMSO treatment as zero percent inhibition.

T1 sequence (P14902 whole entry): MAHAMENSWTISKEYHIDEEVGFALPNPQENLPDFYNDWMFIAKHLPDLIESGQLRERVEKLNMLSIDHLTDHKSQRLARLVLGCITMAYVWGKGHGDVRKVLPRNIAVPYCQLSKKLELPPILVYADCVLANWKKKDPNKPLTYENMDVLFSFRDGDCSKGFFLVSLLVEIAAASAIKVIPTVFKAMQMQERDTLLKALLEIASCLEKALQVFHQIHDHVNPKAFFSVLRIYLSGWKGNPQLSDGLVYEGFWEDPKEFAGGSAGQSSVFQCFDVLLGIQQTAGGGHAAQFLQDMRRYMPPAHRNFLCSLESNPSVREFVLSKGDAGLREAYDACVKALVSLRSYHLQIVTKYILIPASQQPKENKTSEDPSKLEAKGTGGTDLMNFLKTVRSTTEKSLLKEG

Turning to `CC(C)CN(Cc1ccccc1)c1cc(Nc2ccc(F)cc2F)cc(-c2ccccc2-c2nnn[nH]2)n1` [Example 56, 6-(2-(1H-tetrazol-5-yl)phenyl)-N2-benzyl-N4-(2,4-difluorophenyl)-N2-isobutylpyridine-2,4-diamine], the IC50 – broadly, the concentration at which inhibition is half-maximal – came out at 8.6 nM.

For the compound `CC(C)CN(Cc1ccccc1)c1cc(Nc2ccc3c(c2)OCO3)cc(-c2ccccc2-c2nnn[nH]2)n1` [Example 57, 6-(2-(1H-tetrazol-5-yl)phenyl)-N4-(benzo[d][1,3]dioxol-5-yl)-N2-benzyl-N2-isobutylpyridine-2,4-diamine], the IC50 was found to be 4 nM.

As for `CCCN(Cc1ccccc1)c1cc(Nc2ccc3nc(C)sc3c2)cc(-c2ccccc2-c2nnn[nH]2)n1` [Example 58, 6-(2-(1H-tetrazol-5-yl)phenyl)-N2-benzyl-N4-(2-methylbenzo [d]thiazol-6-yl)-N2-propylpyridine-2,4-diamine], the IC50 is 4.2 nM.

With `CCCN(Cc1ccccc1)c1cc(Nc2nc(-c3ccccc3)cs2)cc(-c2ccccc2-c2nnn[nH]2)n1` [Example 59, 6-(2-(1H-tetrazol-5-yl)phenyl)-N2-benzyl-N4-(4-phenylthiazol-2-yl)-N2-propylpyridine-2,4-diamine], the IC50 worked out at 139 nM.

Take `CCCN(Cc1ccccc1)c1cc(Nc2nnc(C)s2)cc(-c2ccccc2-c2nnn[nH]2)n1` [Example 60, 6-(2-(1H-tetrazol-5-yl)phenyl)-N2-benzyl-N4-(5-methyl-1,3,4-thiadiazol-2-yl)-N2-propylpyridine-2,4-diamine]: the IC50 is 831 nM.

As to `CCCN(Cc1ccccc1)c1cc(Nc2ccn(C)n2)cc(-c2ccccc2-c2nnn[nH]2)n1` [Example 61, 6-(2-(1H-tetrazol-5-yl)phenyl)-N2-benzyl-N4-(1-methyl-1H-pyrazol-3-yl)-N2-propylpyridine-2,4-diamine], the IC50 turned out to be 446 nM.

`CCCN(Cc1ccccc1)c1cc(Nc2nc3ccc(F)cc3s2)cc(-c2ccccc2-c2nnn[nH]2)n1` [Example 62, 6-(2-(1H-tetrazol-5-yl)phenyl)-N2-benzyl-N4-(6-fluorobenzo[d]thiazol-2-yl)-N2-propylpyridine-2,4-diamine]: the IC50 turned out to be 56.8 nM.

On to `CCCN(CC1CC1)c1nc(NC(=O)Cc2ccc(C)cc2)cc(-c2ccccc2-c2nnn[nH]2)n1` [Example 64, N-(6-(2-(1H-tetrazol-5-yl)phenyl)-2-((cyclopropylmethyl)(propyl)amino)pyrimidin-4-yl)-2-(p-tolyl)acetamide, TFA], for which the IC50 amounted to 161 nM.

As to `CCCN(CC1CC1)c1nc(NC(=O)Nc2ccc(F)cc2)cc(-c2ccccc2-c2nnn[nH]2)n1` [Example 65, 1-(6-(2-(1H-tetrazol-5-yl)phenyl)-2-((cyclopropylmethyl)(propyl)amino)pyrimidin-4-yl)-3-(4-fluorophenyl)urea, TFA], the IC50 was found to be 4530 nM.

Regarding `CCCN(CC1CC1)c1nc(NC(=O)Nc2ccc(C)cc2)cc(-c2ccccc2-c2nnn[nH]2)n1` [Example 66, 1-(6-(2-(1H-tetrazol-5-yl)phenyl)-2-((cyclopropylmethyl)(propyl)amino)pyrimidin-4-yl)-3-(p-tolyl)urea, TFA], the IC50 worked out at 440 nM.

As for `CCCN(CC1CC1)c1nc(NC(=O)Nc2ccc(OC(F)(F)F)cc2)cc(-c2ccccc2-c2nnn[nH]2)n1` [Example 67, 1-(6-(2-(1H-tetrazol-5-yl)phenyl)-2-((cyclopropylmethyl) (propyl)amino)pyrimidin-4-yl)-3-(4-(trifluoromethoxy)phenyl)urea], the IC50 came out at 2470 nM.

Take `Cc1ccc(CC(=O)Nc2cc(-c3ccccc3-c3nnn[nH]3)nc(N3CCCc4ccccc43)c2)cc1` [Example 68, N-(2-(2-(1H-tetrazol-5-yl)phenyl)-6-(3,4-dihydroquinolin-1(2H)-yl)pyridin-4-yl)-2-(p-tolyl)acetamide, TFA]: the IC50 was found to be 324 nM.

With `CC(C)CN(Cc1ccccc1)c1cc(NC(=O)Nc2ccc(F)cc2)cc(-c2ccccc2-c2nnn[nH]2)n1` [Example 69, 1-(2-(2-(1H-tetrazol-5-yl)phenyl)-6-(benzyl(isobutyl)amino)pyridin-4-yl)-3-(4-fluorophenyl)urea, TFA], the IC50 worked out at 134 nM.
